The target in one test is T1, human μ opiate receptor (Homo sapiens, UniProt P35372).
T1 construct: purchased PerkinElmer Life Sciences, Zaventem, Belgium RB-HOM; host or cells: CHO-K1 cells (membrane preparation)
Description: Affinity for the human μ opiate receptor ([3H]-naloxone displacement, CHO-K1 receptor membrane preparation, SPA). The following applies: 1.5 h, test concentration 1 μM. It counts as binding. The procedure: Binding data of the compounds on the μ opioid receptor and data on the inhibition of reuptake of serotonin (5-HT) are given in Table 1. The data for the μ receptor were measured at a test concentration of 1 μM, and those for the serotonin reuptake at 10 μM. The values are stated in % inhibition.
Investigation of the Activity of the Compounds of the Invention Method for Determining the Affinity for the Human μ Opiate Receptor
The receptor affinity for the human p opiate receptor is determined in a homogeneous set-up in microtitre plates. For this, dilution series of the substances to be tested are incubated with a receptor membrane preparation (15-40 μg of protein/250 μl of incubation batch) of CHO-K1 cells which express the human p opiate receptor (RB-HOM receptor membrane preparation from PerkinElmer Life Sciences, Zaventem, Belgium) in the presence of 1 nmol/l of the radioactive ligand [^3H]-naloxone (NET719, PerkinElmer Life Sciences, Zaventem, Belgium) and 1 mg of WGA-SPA-Beads (wheat germ agglutinin SPA beads from Amersham/Pharmacia, Freiburg, Germany) in a total volume of 250 μl for 90 minutes at room temperature. 50 mmol/l of Tris-HCl supplemented with 0.06% of bovine serum albumin is used as the incubation buffer. 100 μmol/l of naloxone are additionally added for determination of the non-specific binding. After the end of the ninety-minute incubation time, the microtitre plates are centrifuged for 20 minutes at 1,000 g and the radioactivity is measured in a β-counter (Microbeta-Trilux, PerkinElmer Wallac, Freiburg, Germany). The percentage displacement of the radioactive ligand from its binding to the human p opiate receptor is determined at a concentration of the test substances of 1 μmol/l and stated as the percentage inhibition of the specific binding. Starting from the percentage displacement by various concentrations of the test substances, IC50 inhibitory concentrations which cause a 50 percent displacement of the radioactive ligand are calculated. By conversion by means of the Cheng-Prusoff relationship, Ki values for the test substances are obtained.

Test [1] has as its target T2, human bradykinin 1 receptor (B1R) (Homo sapiens, UniProt P46663).
T2 construct: expressed in transfected cells; host or cells: CHO K1 cells
T2 sequence (P46663 1-353): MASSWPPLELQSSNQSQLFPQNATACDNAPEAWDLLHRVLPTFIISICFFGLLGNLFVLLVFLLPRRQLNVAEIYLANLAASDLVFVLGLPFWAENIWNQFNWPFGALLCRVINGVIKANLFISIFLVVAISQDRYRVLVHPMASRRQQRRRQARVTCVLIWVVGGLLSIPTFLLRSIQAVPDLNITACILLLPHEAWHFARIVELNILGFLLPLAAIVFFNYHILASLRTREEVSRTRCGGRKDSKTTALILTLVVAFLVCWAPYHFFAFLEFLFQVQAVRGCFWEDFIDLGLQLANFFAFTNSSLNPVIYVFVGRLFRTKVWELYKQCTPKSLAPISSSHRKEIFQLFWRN
Kind of test: Functional investigation on the human bradykinin 1 receptor (B1R), Ca2+ FLIPR assay in CHO K1 hB1R cells. In kind it is cell-based. The following applies: CHO-K1, B1R antagonism human, test substance 10 μM, read-out: B1R Ant. h [10 μM] % Inhibition. A digest of the protocol: (§1)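 Fluo-4 Ca2+ readout, peak fluorescence. Stable CHO K1 transfectants; compound pre-incubated 10-20 min, then EC80 agonist—Lys-Des-Arg9-BK for hB1R, Des-Arg9-BK for rB1R. % inhibition vs maximal inhibition; IC50 from multiple concentrations, duplicate/triplicate, ≥2 independent runs.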

Test [2] concerns the target T3, bradykinin 1 receptor (B1R) of the rat (Rattus norvegicus, UniProt P97583).
T3 construct: expressed in transfected cells; host or cells: CHO K1 cells
T3 sequence (P97583 1-337): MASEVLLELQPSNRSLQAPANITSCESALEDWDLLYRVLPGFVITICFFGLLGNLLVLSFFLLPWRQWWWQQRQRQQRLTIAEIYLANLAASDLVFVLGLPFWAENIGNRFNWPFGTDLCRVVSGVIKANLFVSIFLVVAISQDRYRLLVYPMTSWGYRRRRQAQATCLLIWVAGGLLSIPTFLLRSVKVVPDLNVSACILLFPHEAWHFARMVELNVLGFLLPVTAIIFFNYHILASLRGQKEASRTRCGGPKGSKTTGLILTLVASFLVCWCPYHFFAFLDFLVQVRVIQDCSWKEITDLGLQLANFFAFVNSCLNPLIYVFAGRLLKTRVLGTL
Description: Functional investigation on the rat bradykinin 1 receptor (B1R), Ca2+ FLIPR assay in CHO K1 rB1R cells. In kind it is cell-based. The following applies: CHO-K1, B1R antagonism rat, test substance 10 μM, read-out: B1R Ant. r [10 μM] % Inhibition. A digest of the protocol: as §1

The mark [3] stands for this setting: Table 3, to be read in the same way as Table 1, read-out: μ.
The mark [4] stands for this setting: % inhibition compared with the maximum achievable inhibition.

Structures are written as SMILES. Like-named read-outs stand apart in the source and are kept apart here.

T1 sequence (P35372 whole entry): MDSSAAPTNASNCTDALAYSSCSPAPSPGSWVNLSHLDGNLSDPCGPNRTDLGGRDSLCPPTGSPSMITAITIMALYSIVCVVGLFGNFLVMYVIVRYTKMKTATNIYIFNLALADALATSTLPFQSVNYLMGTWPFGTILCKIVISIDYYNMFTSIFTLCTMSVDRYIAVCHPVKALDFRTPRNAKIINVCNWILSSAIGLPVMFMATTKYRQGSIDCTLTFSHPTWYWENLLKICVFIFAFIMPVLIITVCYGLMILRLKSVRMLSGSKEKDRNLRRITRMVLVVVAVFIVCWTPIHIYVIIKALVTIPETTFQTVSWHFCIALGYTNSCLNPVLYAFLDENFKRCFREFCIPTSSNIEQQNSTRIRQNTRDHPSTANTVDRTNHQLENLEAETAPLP

`CN(CCOCC(=O)NC1CCC(C(CCc2ccccc2)N2CCCCC2)CC1)S(=O)(=O)c1c(Cl)cc(C(F)(F)F)cc1Cl` (stereo not drawn) [Example 671, 2-(2-(2,6-dichloro-N-methyl-4-(trifluoromethyl)phenylsulfonamido)ethoxy)-N-(4-(3-phenyl-1-(piperidin-1-yl)propyl)cyclohexyl)acetamide]: the inhibition at 1 µM on human μ opiate receptor (setting [3]) is 9%. Besides, the inhibition at 10 µM in test [1] (Ca2+ FLIPR, CHO K1 hB1R cells) is 43%; in test [2] (Ca2+ FLIPR, CHO K1 rB1R cells), 4%.

In the case of `O=C(COCC1CCCN1S(=O)(=O)c1c(Cl)cc(Cl)cc1Cl)NC1CCC(C(c2ccccc2)N2CCOCC2)CC1` (stereo not drawn) [Example 698, N-(4-(morpholino(phenyl)methyl)cyclohexyl)-2-((1-(2,4,6-trichlorophenylsulfonyl)pyrrolidin-2-yl)methoxy)acetamide], the inhibition at 1 µM on human μ opiate receptor (setting [3]) is 40%. The inhibition at 10 µM in test [1] (Ca2+ FLIPR, CHO K1 hB1R cells) was 39%; in test [2] (Ca2+ FLIPR, CHO K1 rB1R cells), 86%.

For the compound `CN(CCOCC(=O)NC1CCC(C(c2ccccc2)N2CCCC2)CC1)S(=O)(=O)c1c(Cl)cc(C(F)(F)F)cc1Cl` (stereo not drawn) [Example 630, 2-(2-(2,6-dichloro-N-methyl-4-(trifluoromethyl)phenylsulfonamido)ethoxy)-N-(4-(phenyl(pyrrolidin-1-yl)methyl)cyclohexyl)acetamide], the inhibition at 1 µM on human μ opiate receptor (setting [3]) turned out to be 72%. Also, the inhibition at 10 µM was 50% in test [1] (Ca2+ FLIPR, CHO K1 hB1R cells) and -11% in test [2] (Ca2+ FLIPR, CHO K1 rB1R cells).

In the case of `CN(C)C(Cc1ccccc1)C1CCC(NC(=O)COCCN(C)S(=O)(=O)c2c(Cl)cc(Cl)cc2Cl)CC1` (stereo not drawn) [Example 616, N-[4-(1-dimethylamino-2-phenylethyl)-cyclohexyl]-2-{2-[methyl-(2,4,6-trichlorobenzenesulfonyl)-amino]-ethoxy}-acetamide], on human μ opiate receptor (Table 2, read-out: μ receptor), the inhibition at 1 µM was 64%. Also, the inhibition at 10 µM came out at 100% in test [1] (Ca2+ FLIPR, CHO K1 hB1R cells) and 43% in test [2] (Ca2+ FLIPR, CHO K1 rB1R cells).

As for `CN(CCOCC(=O)NC1CCC(C(c2ccccc2)N2CCOCC2)CC1)S(=O)(=O)c1c(Cl)cc(C(F)(F)F)cc1Cl` (stereo not drawn) [Example 689, 2-(2-(2,6-dichloro-N-methyl-4-(trifluoromethyl)phenylsulfonamido)ethoxy)-N-(4-(morpholino(phenyl)methyl)cyclohexyl)acetamide], the inhibition at 1 µM at human μ opiate receptor (setting [3]) was 6%. Also, the inhibition at 10 µM in test [1] (Ca2+ FLIPR, CHO K1 hB1R cells) amounted to 22%; in test [2] (Ca2+ FLIPR, CHO K1 rB1R cells), 39%.

Take `COc1cc(C)c(S(=O)(=O)N2CCCC2COCC(=O)NC2CCC(C(c3ccccc3)N3CCCC3)CC2)c(C)c1` (stereo not drawn) [Example 632, 2-((1-(4-methoxy-2,6-dimethylphenylsulfonyl)pyrrolidin-2-yl)methoxy)-N-(4-(phenyl(pyrrolidin-1-yl)methyl)cyclohexyl)acetamide]: the inhibition at 1 µM at human μ opiate receptor (setting [3]) is 68%. Also, the inhibition at 10 µM in test [1] (Ca2+ FLIPR, CHO K1 hB1R cells) came to 105%; in test [2] (Ca2+ FLIPR, CHO K1 rB1R cells) it was 75%.

Turning to `COc1cc(C)c(S(=O)(=O)N2CCCCC2COCC(=O)N2CCC(C(c3ccc(F)cc3)N3CCN(C)CC3)CC2)c(C)c1` (stereo not drawn) [Example 805, 1-(4-((4-fluorophenyl)(4-methylpiperazin-1-yl)methyl)piperidin-1-yl)-2-((1-(4-methoxy-2,6-dimethylphenylsulfonyl)piperidin-2-yl)methoxy)ethanone], the inhibition at 1 µM on human μ opiate receptor (setting [3]) was 4%. In addition, the inhibition at 10 µM in test [1] (setting [4]) was 103%; in test [2] (setting [4]), 99%.

Take `O=C(COCC1CCCCN1S(=O)(=O)c1c(Cl)cc(Cl)cc1Cl)NCC1CCC(C(c2ccccc2)N2CCCC2)CC1` (stereo not drawn) [Example 658, N-((4-(phenyl(pyrrolidin-1-yl)methyl)cyclohexyl)methyl)-2-((1-(2,4,6-trichlorophenylsulfonyl)piperidin-2-yl)methoxy)acetamide]: the inhibition at 1 µM on human μ opiate receptor (setting [3]) turned out to be 88%. In addition, the inhibition at 10 µM in test [1] (Ca2+ FLIPR, CHO K1 hB1R cells) was 104%; in test [2] (Ca2+ FLIPR, CHO K1 rB1R cells), 105%.

Consider `CN(C)C(c1ccccc1)C1CCC(NC(=O)CCOCN(C)S(=O)(=O)c2c(Cl)cc(Cl)cc2Cl)CC1` (stereo not drawn) [Example 620, N-[4-(dimethylaminophenylmethyl)-cyclohexyl]-3-{[methyl-(2,4,6-trichlorobenzenesulfonyl)-amino]-methoxy}-propionamide], for which the inhibition at 1 µM at human μ opiate receptor (Table 2, read-out: μ receptor) came to 92%. Further, the inhibition at 10 µM in test [1] (Ca2+ FLIPR, CHO K1 hB1R cells) was 103%; in test [2] (Ca2+ FLIPR, CHO K1 rB1R cells), 73%.

For the compound `CN1CCN(C(c2ccccc2)C2CCC(NC(=O)COCCN(C)S(=O)(=O)c3ccc(Cl)cc3Cl)CC2)CC1` (stereo not drawn) [Example 704, 2-(2-(2,4-dichloro-N-methylphenylsulfonamido)ethoxy)-N-(4-((4-methylpiperazin-1-yl)(phenyl)methyl)cyclohexyl)acetamide], the inhibition at 1 µM on human μ opiate receptor (setting [3]) came out at 27%. The inhibition at 10 µM came to 75% in test [1] (Ca2+ FLIPR, CHO K1 hB1R cells) and 39% in test [2] (Ca2+ FLIPR, CHO K1 rB1R cells).

Consider `CN1CCN(C(c2ccccc2)C2CCC(NC(=O)COCC3CCCN3S(=O)(=O)c3c(Cl)cc(Cl)cc3Cl)CC2)CC1` (stereo not drawn) [Example 732, N-(4-((4-methylpiperazin-1-yl)(phenyl)methyl)cyclohexyl)-2-((1-(2,4,6-trichlorophenylsulfonyl)pyrrolidin-2-yl)methoxy)acetamide], for which the inhibition at 1 µM on human μ opiate receptor (setting [3]) worked out at 61%. Further, the inhibition at 10 µM turned out to be 100% in test [1] (Ca2+ FLIPR, CHO K1 hB1R cells) and 84% in test [2] (Ca2+ FLIPR, CHO K1 rB1R cells).

As to `O=C(COCC1CCCN(S(=O)(=O)c2c(Cl)cc(Cl)cc2Cl)C1)NC1CCC(C(CCc2ccccc2)N2CCCCC2)CC1` (stereo not drawn) [Example 679, N-(4-(3-phenyl-1-(piperidin-1-yl)propyl)cyclohexyl)-2-((1-(2,4,6-trichlorophenylsulfonyl)piperidin-3-yl)methoxy)acetamide], the inhibition at 1 µM at human μ opiate receptor (setting [3]) turned out to be 51%. Further, the inhibition at 10 µM came to 39% in test [1] (Ca2+ FLIPR, CHO K1 hB1R cells) and 34% in test [2] (Ca2+ FLIPR, CHO K1 rB1R cells).

`COc1cc(C)c(S(=O)(=O)N2CCCC(COCC(=O)NC3CCC(C(CCc4ccccc4)N4CCOCC4)CC3)C2)c(C)c1` (stereo not drawn) [Example 678, 2-((1-(4-methoxy-2,6-dimethylphenylsulfonyl)piperidin-3-yl)methoxy)-N-(4-(1-morpholino-3-phenylpropyl)cyclohexyl)acetamide]: at human μ opiate receptor (setting [3]), the inhibition at 1 µM was 6%. Also, the inhibition at 10 µM worked out at 45% in test [1] (Ca2+ FLIPR, CHO K1 hB1R cells) and 73% in test [2] (Ca2+ FLIPR, CHO K1 rB1R cells).

For the compound `CN(CCOCC(=O)NC1CCC(C(CCc2ccccc2)N2CCOCC2)CC1)S(=O)(=O)c1c(Cl)cc(C(F)(F)F)cc1Cl` (stereo not drawn) [Example 670, 2-(2-(2,6-dichloro-N-methyl-4-(trifluoromethyl)phenylsulfonamido)ethoxy)-N-(4-(1-morpholino-3-phenylpropyl)cyclohexyl)acetamide], on human μ opiate receptor (setting [3]), the inhibition at 1 µM was 7%. Moreover, the inhibition at 10 µM worked out at 12% in test [1] (Ca2+ FLIPR, CHO K1 hB1R cells) and 58% in test [2] (Ca2+ FLIPR, CHO K1 rB1R cells).

Take `O=C(COCC1CCCN1S(=O)(=O)c1c(Cl)cc(Cl)cc1Cl)NC1CCC(C(CCc2ccccc2)N2CCCCC2)CC1` (stereo not drawn) [Example 697, N-(4-(3-phenyl-1-(piperidin-1-yl)propyl)cyclohexyl)-2-((1-(2,4,6-trichlorophenylsulfonyl)pyrrolidin-2-yl)methoxy)acetamide]: at human μ opiate receptor (setting [3]), the inhibition at 1 µM was determined as 76%. The inhibition at 10 µM in test [1] (Ca2+ FLIPR, CHO K1 hB1R cells) is 71%; in test [2] (Ca2+ FLIPR, CHO K1 rB1R cells), 97%.

Source of the values: patent US8106055B2, “Substituted amide compounds” (Gruenenthal GmbH, priority 2007, dated 2012).
